Experiments:
Format in all cases: in vivo
[1] = system: barnyardgrass (Echinochloa crus-galli); assay: Test A preemergence, visual injury rating; settings: 1000 g ai/ha, 0 to 100 scale (0 no effect, 100 complete control)
How it was run: (§1)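 Scoring: eye-based comparison with untreated controls, 0 for no effect through 100 for complete control, at about day 10. Treatments: directed soil spray preemergence; foliar spray postemergence on 2–10 cm plants at the one- to two-leaf stage. Medium: loam soil with sand.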

corn (Zea mays) [2] = assay: Test A preemergence, visual injury rating; settings: 1000 g ai/ha, 0 to 100 scale (0 no effect, 100 complete control)
How it was run: as §1

[3] = system: giant foxtail (Setaria faberii); assay: Test A preemergence, visual injury rating; settings: 1000 g ai/ha, 0 to 100 scale (0 no effect, 100 complete control)
How it was run: as §1

[4] = system: large (Lg) crabgrass (Digitaria sanguinalis); assay: Test A preemergence, visual injury rating; settings: 1000 g ai/ha, 0 to 100 scale (0 no effect, 100 complete control)
How it was run: as §1

[5] = system: pigweed (Amaranthus retroflexus); assay: Test A preemergence, visual injury rating; settings: 1000 g ai/ha, 0 to 100 scale (0 no effect, 100 complete control)
How it was run: as §1

[6] = system: velvetleaf (Abutilon theophrasti); assay: Test A preemergence, visual injury rating; settings: 1000 g ai/ha, 0 to 100 scale (0 no effect, 100 complete control)
How it was run: as §1

[7] = system: wheat (Triticum aestivum); assay: Test A preemergence, visual injury rating; settings: 1000 g ai/ha, 0 to 100 scale (0 no effect, 100 complete control)
How it was run: as §1

[8] = system: barnyardgrass (Echinochloa crus-galli); assay: Test A postemergence, visual injury rating; settings: 1000 g ai/ha, 0 is no effect, 100 is complete control
How it was run: as §1

corn (Zea mays) [9] = assay: Test A postemergence, visual injury rating; settings: 1000 g ai/ha, 0 is no effect, 100 is complete control
How it was run: as §1

[10] = system: giant foxtail (Setaria faberii); assay: Test A postemergence, visual injury rating; settings: 1000 g ai/ha, 0 is no effect, 100 is complete control
How it was run: as §1

[11] = system: large (Lg) crabgrass (Digitaria sanguinalis); assay: Test A postemergence, visual injury rating; settings: 1000 g ai/ha, 0 is no effect, 100 is complete control
How it was run: as §1

[12] = system: pigweed (Amaranthus retroflexus); assay: Test A postemergence, visual injury rating; settings: 1000 g ai/ha, 0 is no effect, 100 is complete control
How it was run: as §1

[13] = system: velvetleaf (Abutilon theophrasti); assay: Test A postemergence, visual injury rating; settings: 1000 g ai/ha, 0 is no effect, 100 is complete control
How it was run: as §1

[14] = system: wheat (Triticum aestivum); assay: Test A postemergence, visual injury rating; settings: 1000 g ai/ha, 0 is no effect, 100 is complete control
How it was run: as §1

[15] = system: barnyardgrass (Echinochloa crus-galli); assay: Test B flooded paddy test, plant response rating; settings: 250 g ai/ha; Flood; scale of 0 to 100 where 0 is no effect and 100 is complete control; 13 to 15 days
How it was run: (§2)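 Greenhouse pots flooded to 3 cm above soil at time of treatment received compound via the water, which stayed at that level.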

[16] = system: ducksalad (Heteranthera limosa); assay: Test B flooded paddy test, plant response rating; settings: 250 g ai/ha; Flood; scale of 0 to 100 where 0 is no effect and 100 is complete control; 13 to 15 days
How it was run: as §2

rice (Oryza sativa) = assay: Test B flooded paddy test, plant response rating; settings: 250 g ai/ha; Flood; scale of 0 to 100 where 0 is no effect and 100 is complete control; 13 to 15 days
How it was run: as §2

[17] = system: sedge, umbrella (small-flower umbrella sedge, Cyperus difformis); assay: Test B flooded paddy test, plant response rating; settings: 250 g ai/ha; Flood; scale of 0 to 100 where 0 is no effect and 100 is complete control; 13 to 15 days
How it was run: as §2

SMILES	Barnyardgrass plant response rating [1]	Corn plant response rating (corn (Zea mays) [2])	Foxtail, Giant plant response rating [3]	Crabgrass, Large plant response rating [4]	Pigweed plant response rating [5]	Velvetleaf plant response rating [6]	Wheat plant response rating [7]	Barnyardgrass plant response rating (0 to 100 scale) [8]	Corn plant response rating (0 to 100 scale) (corn (Zea mays) [9])	Foxtail, Giant plant response rating (0 to 100 scale) [10]	Crabgrass, Large plant response rating (0 to 100 scale) [11]	Pigweed plant response rating (0 to 100 scale) [12]	Velvetleaf plant response rating (0 to 100 scale) [13]	Wheat plant response rating (0 to 100 scale) [14]	Plant response rating, Barnyardgrass [15]	Plant response rating, Ducksalad [16]	Plant response rating, Rice (rice (Oryza sativa))	Plant response rating, Sedge, Umbrella [17]
CON=C(C)c1ccccc1Oc1ncc(Cl)cn1 [Compound 55]	0	0	0	0	0	0	0	0	0	10	0	0	10	0				
CC(=NOC(C)C)c1ccccc1Oc1ncc(Cl)cn1 [Compound 56]	90	0	100	100	100	90	0	50	30	70	40	60	100	10	0	0	0	0
